According to patent publication US11415579B2, “Assay for measuring a rate of reaction between a target and a ligand candidate” (Imperial College Innovations Ltd., priority 2016, dated 2022):

Key:
[1] = biological target: T1, Cdk2(T182C) (C177A) (Homo sapiens, UniProt P24941, C177A/T182C); test: Kinetic thiol consumption assay with Cdk2 mutant T182C; type: binding; design: key to Rate enhancement, Cdk2 T182C: rate constant with Cdk2 ÷ rate constant with model thiol (fold); settings: additional mutation C177A; for Rate constant with Cdk2 T182C: Protein: Cdk2, cysteine position T182C, in h^-1
T1 construct: poly-histidine; made in house; host or cells: E. coli
How it was run: (§1)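 His-tagged single-surface-cysteine Cdk2 mutants (C177A background) from E. coli, 5 μM in degassed phosphate buffer pH 8, pre-treated with immobilized TCEP beads. Fluorescence (ex/em 380/470 nm) read after 1 h at room temperature, normalized to DMSO/thiol-only control; first-order decay fits gave rate constants, divided by model-thiol rate for rate enhancement.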

[2] = biological target: T2, Cdk2(S276C) (C177A) (Homo sapiens, UniProt P24941, C177A/S276C); test: Kinetic thiol consumption assay with Cdk2 mutant S276C; type: binding; design: key to Rate enhancement, Cdk2 S276C: rate constant with Cdk2 ÷ rate constant with model thiol (fold); settings: additional mutation C177A; for Rate constant with Cdk2 S276C: Protein: Cdk2, cysteine position S276C, in h^-1
T2 construct: poly-histidine; made in house; host or cells: E. coli
How it was run: as §1

[3] = biological target: T3, Cdk2[C177A, F80C, K278C] (Homo sapiens, UniProt P24941, C177A/F80C/K278C); test: Kinetic thiol consumption assay with mutant Cdk2 as model thiol; type: binding; design: unit not given here; settings: 500 μM ligand, 5 μM thiol, phosphate buffer pH 8
T3 construct: poly-histidine; made in house; host or cells: E. coli
How it was run: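 Model thiol: His-tagged human Cdk2 C177A/F80C/K278C (two engineered surface cysteines), E. coli-expressed, 5 μM in degassed phosphate buffer pH 8 with immobilized TCEP beads (2% v/v). Fluorescence (ex/em 380/470 nm) followed over time at room temperature, normalized to DMSO/thiol control. First-order decay fit gives rate constants.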

[4] = biological target: T4, Cdk2(R122C) (C177A) (Homo sapiens, UniProt P24941, C177A/R122C); test: Kinetic thiol consumption assay with Cdk2 mutant R122C; type: binding; design: key to Rate enhancement, Cdk2 R122C: rate constant with Cdk2 ÷ rate constant with model thiol (fold); settings: additional mutation C177A; for Rate constant with Cdk2 R122C: Protein: Cdk2, cysteine position R122C, in h-1
T4 construct: poly-histidine; made in house; host or cells: E. coli
How it was run: as §1

[5] = biological target: T5, Cdk2(H71C) (C177A) (Homo sapiens, UniProt P24941, C177A/H71C); test: Kinetic thiol consumption assay with Cdk2 mutant H71C; type: binding; design: key to Rate enhancement, Cdk2 H71C: rate constant with Cdk2 ÷ rate constant with model thiol (fold); settings: additional mutation C177A; for Rate constant with Cdk2 H71C: Protein: Cdk2, cysteine position H71C, in h^-1
T5 construct: poly-histidine; made in house; host or cells: E. coli
How it was run: as §1

[6] = biological target: T6, Cdk2(N272C) (C177A) (Homo sapiens, UniProt P24941, C177A/N272C); test: Kinetic thiol consumption assay with Cdk2 mutant N272C; type: binding; design: key to Rate enhancement, Cdk2 N272: rate constant with Cdk2 ÷ rate constant with model thiol (fold); settings: for Rate enhancement, Cdk2 N272: Cdk2 N272, additional mutation C177A; for Rate constant with Cdk2 N272C: Protein: Cdk2, cysteine position N272C, additional mutation C177A, in h^-1
T6 construct: poly-histidine; made in house; host or cells: E. coli
How it was run: as §1

[7] = Kinetic thiol consumption assay with model thiol glutathione; type: physicochemical; design: Rate constant with glutathione (k(GSH)): unit not given here; settings: for Rate constant with glutathione (k(GSH)): 500 μM ligand, 5 μM thiol, phosphate buffer pH 8; for Rate constant with Glutathione: Protein: Glutathione, cysteine position NA, in h-1
How it was run: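 GSH 5 μM, degassed phosphate buffer pH 8, TCEP beads 2% v/v; acrylamide added; RT, 1 h; fluorescence ex/em 380/470 nm; normalized to DMSO/thiol control; k from first-order exponential decay fit.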

[8] = biological target: T7, Cdk2(S181C) (C177A) (Homo sapiens, UniProt P24941, C177A/S181C); test: Kinetic thiol consumption assay with Cdk2 mutant S181C; type: binding; design: key to Rate enhancement, Cdk2 S181C: rate constant with Cdk2 ÷ rate constant with model thiol (fold); settings: additional mutation C177A; for Rate constant with Cdk2 S181C: Protein: Cdk2, cysteine position S181C, in h^-1
T7 construct: poly-histidine; made in house; host or cells: E. coli
How it was run: as §1

[9] = biological target: T8, human cyclin-dependent kinase 2 (Cdk2) (Homo sapiens, UniProt P24941); test: Kinetic thiol consumption assay with wild type Cdk2 (C177); type: binding; design: key to Rate enhancement, Cdk2 WT: k(Cdk2) divided by k(model thiol); Rate constant with Cdk2 (k(Cdk2)): unit not given here; settings: for Rate constant with Cdk2 (k(Cdk2)): 500 μM ligand, 5 μM thiol, phosphate buffer pH 8; for Rate enhancement, Cdk2 WT: no additional mutations; for Rate constant with Cdk2 WT: Protein: Cdk2, cysteine position WT, in h^-1; for k(Cdk2)/k(Cdk2_mut) rate enhancement: model thiol Cdk2[C177A, F80C, K278C]; for k(Cdk2)/k(GSH) rate enhancement: model thiol glutathione
T8 construct: poly-histidine; made in house; host or cells: E. coli
How it was run: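 Rate constants came from first-order exponential decay fits of normalized fluorescence against time, with thiol (5 μM) in degassed pH 8 phosphate buffer containing 2% v/v TCEP beads and reads after 1 h at room temperature.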

[10] = biological target: T9, Cdk2(C177A, F80C) (Homo sapiens, UniProt P24941, C177A/F80C); test: Kinetic thiol consumption assay with Cdk2 mutant F80C, incl. kobs versus concentration (Kd, k2); type: binding; design: key to Rate enhancement, Cdk2 F80C: Cdk2 rate constant divided by model-thiol rate constant; settings: additional mutation C177A; for Rate constant with Cdk2 F80C: Protein: Cdk2, cysteine position F80C, in h^-1
T9 construct: poly-histidine; made in house; host or cells: E. coli
How it was run: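 His-tagged Cdk2(C177A/F80C) from E. coli or model thiol, 5 μM in degassed phosphate buffer pH 8 with TCEP beads, reacted with acrylamide ligands; fluorescence (ex/em 380/470 nm) normalized to DMSO control and fitted to first-order decay for kobs. Kd and k2 obtained from hyperbolic fit of kobs versus ligand concentration.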

With `C=CC(=O)NCCc1c[nH]c2ccccc12` [EL-1174] the “Rate enhancement, Cdk2 T182C” value [1] was 1.377, the “Rate constant with Cdk2 T182C” value [1] was 0.005783 and the “Rate enhancement, Cdk2 S276C” value [2] was 0.716. The “Rate constant with Cdk2 S276C” value [2] was 0.003008, the “Rate constant with Cdk2[C177A, F80C, K278C] (k(Cdk2_mut))” value (“Rate constant … (k(Cdk2_mut))” for short) [3] was 0.00688 and the “Rate enhancement, Cdk2 R122C” value [4] was 0.532. The “Rate constant with Cdk2 R122C” value [4] was 0.002235, the “Rate enhancement, Cdk2 H71C” value [5] was 0.8572 and the “Rate constant with Cdk2 H71C” value [5] was 0.003601. The “Rate enhancement, Cdk2 N272” value [6] was 0, the “Rate constant with glutathione (k(GSH))” value [7] was 0.00253 and the “Rate constant with Glutathione” value [7] was 0.004201. For the same compound, the “Rate enhancement, Cdk2 S181C” value [8] was 0.5058, the “Rate constant with Cdk2 S181C” value [8] was 0.002125 and the “Rate constant with Cdk2 (k(Cdk2))” value [9] was 0.0009. For the same compound, the “Rate enhancement, Cdk2 WT” value [9] was 0.3449, the “Rate constant with Cdk2 WT” value [9] was 0.001449 and the “k(Cdk2)/k(Cdk2_mut) rate enhancement” value [9] was 0.131. The “k(Cdk2)/k(GSH) rate enhancement” value [9] was 0.3555, the “Rate enhancement, Cdk2 F80C” value [10] was 3.249 and the “Rate constant with Cdk2 F80C” value [10] was 0.01365.

With `C=CC(=O)N1CCN(Cc2ccc(Cl)cc2)CC1` [EL-1183] the “Rate enhancement, Cdk2 T182C” value [1] was 2.26, the “Rate constant with Cdk2 T182C” value [1] was 0.01481 and the “Rate enhancement, Cdk2 S276C” value [2] was 0.8088. The “Rate constant with Cdk2 S276C” value [2] was 0.005301, the “Rate constant … (k(Cdk2_mut))” value [3] was 0.00864 and the “Rate enhancement, Cdk2 R122C” value [4] was 0.5841. The “Rate constant with Cdk2 R122C” value [4] was 0.003828, the “Rate enhancement, Cdk2 H71C” value [5] was 1.823 and the “Rate constant with Cdk2 H71C” value [5] was 0.01195. For the same compound, the “Rate enhancement, Cdk2 N272” value [6] was 0.4193, the “Rate constant with Cdk2 N272C” value [6] was 0.002748 and the “Rate constant with glutathione (k(GSH))” value [7] was 0.00676. For the same compound, the “Rate constant with Glutathione” value [7] was 0.006554, the “Rate enhancement, Cdk2 S181C” value [8] was 0.8531 and the “Rate constant with Cdk2 S181C” value [8] was 0.005591. The “Rate constant with Cdk2 (k(Cdk2))” value [9] was 0.00376, the “Rate enhancement, Cdk2 WT” value [9] was 0.574 and the “Rate constant with Cdk2 WT” value [9] was 0.003762. The “k(Cdk2)/k(Cdk2_mut) rate enhancement” value [9] was 0.4353, the “k(Cdk2)/k(GSH) rate enhancement” value [9] was 0.5564 and the “Rate enhancement, Cdk2 F80C” value [10] was 2.859. For the same compound, the “Rate constant with Cdk2 F80C” value [10] was 0.01874.

For `C=CC(=O)N1CCCC(C(=O)OCC)C1` (centres unmarked) [EL-1187], the “Rate enhancement, Cdk2 T182C” value [1] was 4.397, the “Rate constant with Cdk2 T182C” value [1] was 0.05839 and the “Rate enhancement, Cdk2 S276C” value [2] was 0.4007. For the same compound, the “Rate constant with Cdk2 S276C” value [2] was 0.005321, the “Rate constant … (k(Cdk2_mut))” value [3] was 0.00336 and the “Rate enhancement, Cdk2 R122C” value [4] was 0.1436. For the same compound, the “Rate constant with Cdk2 R122C” value [4] was 0.001907, the “Rate enhancement, Cdk2 H71C” value [5] was 0.4465 and the “Rate constant with Cdk2 H71C” value [5] was 0.005929. For the same compound, the “Rate enhancement, Cdk2 N272” value [6] was 0.5301, the “Rate constant with Cdk2 N272C” value [6] was 0.00704 and the “Rate constant with glutathione (k(GSH))” value [7] was 0.00634. For the same compound, the “Rate constant with Glutathione” value [7] was 0.01328, the “Rate enhancement, Cdk2 S181C” value [8] was 0.2887 and the “Rate constant with Cdk2 S181C” value [8] was 0.003834. For the same compound, the “Rate constant with Cdk2 (k(Cdk2))” value [9] was 0.00596, the “Rate enhancement, Cdk2 WT” value [9] was 0.6935 and the “Rate constant with Cdk2 WT” value [9] was 0.00921. For the same compound, the “k(Cdk2)/k(Cdk2_mut) rate enhancement” value [9] was 1.774, the “k(Cdk2)/k(GSH) rate enhancement” value [9] was 0.9394 and the “Rate enhancement, Cdk2 F80C” value [10] was 0.4424. For the same compound, the “Rate constant with Cdk2 F80C” value [10] was 0.005875.
